Data on one molecule can be found in US10443062B2, “Genes that improve tolerance to lignocellulosic toxins when overexpressed in yeast” (Wisconsin Alumni Research Foundation, priority 2016, dated 2019).

The assay concerns NCYC361 and other strains. As to conditions: for doubling time: YPD supplemented with 100 mg/L of iron sulfate vs YPD.

Like-named read-outs stand apart in the source and are kept apart here.

Protocol: Shown are the average and standard deviation of the doubling times measured for each strain in YPD and in YPD supplemented with 100 mg/L of iron sulfate. […] Data represent three biological replicates.

As for `O.O.O.O.O.O.O.O=S(=O)([O-])[O-].[Fe+2]` [iron sulfate, iron (II) sulfate heptahydrate], under “NCYC361”, the “growth with iron supplementation to YPD” value is listed as “partially alleviated the slow growth”. Further, the doubling time entry runs as follows: (NCYC361, p<0.0008) “faster”; (any other strain) “not significantly different”.
